In patent publication US20040149200A1, “Crystals of an oligosaccharides and process for preparation thereof” (priority 2001, published 2004):

Assay: Storage stability of Oligosaccharide Crystals (I) and freeze-dried Oligosaccharide (I) powders (residual rate by HPLC)
Assay type: physicochemical
Settings: 105° C. in the atmosphere under ordinary pressure
Procedure: The storage stability of Oligosaccharide Crystals (I) obtained in Examples 1 to 3 and freeze-dried Oligosaccharide (I) powders obtained in Reference Examples 1 to 3 was examined by keeping them at 105° C. in the atmosphere under ordinary pressure for 20 days and measuring the residual rate of Oligosaccharides (I).
The residual rate of Oligosaccharides (I) in the samples was measured by high performance liquid chromatography (HPLC) and expressed in terms of HPLC purity (%)
Measurement conditions for HPLC are as follows.
Analyzer: product of Dionex Corporation
Column temperature: 30° C.
Mobile phase: 10-100% aqueous solution of NaOH
(500 mmol/L) (Gradient elution in 11 minutes)
Detection: electrochemical detection (PAD method)

Row | SMILES | Residual rate of oligosaccharides: HPLC purity (%) (days that passed: 0) | Residual rate of oligosaccharides: HPLC purity (%) (days that passed: 1) | Residual rate of oligosaccharides: HPLC purity (%) (days that passed: 4) | Residual rate of oligosaccharides: HPLC purity (%) (days that passed: 7) | Residual rate of oligosaccharides: HPLC purity (%) (days that passed: 20)
1 | CC(=O)N[C@H]1[C@H](O[C@H]2[C@@H](O)[C@@H](CO)O[C@@H](O[C@H]3[C@H](O)[C@@H](O)C(O)O[C@@H]3CO)[C@@H]2O)O[C@H](CO)[C@@H](O)[C@@H]1O (stereo partly drawn) [Crystals No. 1, GlcNAcβ1, 3Galβ1, 4Glc] | 98.0% | 99.7% | 99.7% | 99.7% | 98.9%
2 | CC(=O)N[C@H]1[C@H](O[C@H]2[C@@H](O)[C@@H](CO)O[C@@H](O[C@H]3[C@H](O)[C@@H](O)C(O)O[C@@H]3CO)[C@@H]2O)O[C@H](CO)[C@@H](O[C@@H]2O[C@H](CO)[C@H](O)[C@H](O)[C@H]2O)[C@@H]1O (stereo partly drawn) [Crystals No. 2, Galβ1, 4GlcNAcβ1, 3Galβ1, 4Glc] | 99.3% | 99.0% | 99.2% | 99.0% | 98.8%
3 | CC(=O)N[C@H]1[C@H](O[C@H]2[C@@H](O)[C@@H](CO)O[C@@H](O[C@H]3[C@H](O)[C@@H](O)C(O)O[C@@H]3CO)[C@@H]2O)O[C@H](CO)[C@@H](O[C@@H]2O[C@H](CO)[C@H](O)[C@H](O[C@@H]3O[C@H](CO)[C@@H](O)[C@H](O)[C@H]3NC(C)=O)[C@H]2O)[C@@H]1O (stereo partly drawn) [Crystals No. 3, GlcNAcβ1, 3Galβ1, 4GlcNAcβ1, 3Galβ1, 4Glc] | 98.8% | 99.3% | 99.0% | 99.0% | 99.3%

More lines, now with the values ahead:

Row | Residual rate of oligosaccharides: HPLC purity (%) (days that passed: 0) | Residual rate of oligosaccharides: HPLC purity (%) (days that passed: 1) | Residual rate of oligosaccharides: HPLC purity (%) (days that passed: 4) | Residual rate of oligosaccharides: HPLC purity (%) (days that passed: 7) | Residual rate of oligosaccharides: HPLC purity (%) (days that passed: 20) | SMILES
4 | 99.3% | 98.6% | 97.6% | 96.2% | 90.9% | CC(=O)N[C@H]1[C@H](O[C@H]2[C@@H](O)[C@@H](CO)O[C@@H](O[C@H]3[C@H](O)[C@@H](O)C(O)O[C@@H]3CO)[C@@H]2O)O[C@H](CO)[C@@H](O[C@@H]2O[C@H](CO)[C@H](O)[C@H](O)[C@H]2O)[C@@H]1O (stereo partly drawn) [Freeze-dried Galβ1, 4GlcNAc-β1, 3Galβ1, 4Glc powders] [Galβ1,4GlcNAcβ1,3Galβ1,4Glc]
5 | 99.8% | 99.7% | 97.0% | 98.8% | 93.8% | CC(=O)N[C@H]1[C@H](O[C@H]2[C@@H](O)[C@@H](CO)O[C@@H](O[C@H]3[C@H](O)[C@@H](O)C(O)O[C@@H]3CO)[C@@H]2O)O[C@H](CO)[C@@H](O)[C@@H]1O (stereo partly drawn) [Freeze-dried GlcNAcβ1, 3Gal-β1, 4Glc powders] [GlcNAcβ1,3Galβ1,4Glc]
6 | 98.6% | 98.2% | 97.4% | 95.4% | 85.2% | CC(=O)N[C@H]1[C@H](O[C@H]2[C@@H](O)[C@@H](CO)O[C@@H](O[C@H]3[C@H](O)[C@@H](O)C(O)O[C@@H]3CO)[C@@H]2O)O[C@H](CO)[C@@H](O[C@@H]2O[C@H](CO)[C@H](O)[C@H](O[C@@H]3O[C@H](CO)[C@@H](O)[C@H](O)[C@H]3NC(C)=O)[C@H]2O)[C@@H]1O (stereo partly drawn) [Freeze-dried GlcNAcβ1, 3Gal-β1, 4GlcNAcβ1, 3Galβ1, 4Glc powd] [GlcNAcβ1,3Galβ1,4GlcNAcβ1,3Galβ1,4Glc]
